According to patent US10202387B2, “Heterocyclyl linked imidazopyridazine derivatives as PI3KB inhibitors” (Janssen Pharmaceutica NV, priority 2014, dated 2019):

Legend:
[1] = biological target: T1, MTOR_h (Homo sapiens, UniProt P42345); experiment: Enzyme binding assay (KINOMEscan); settings: DiscoveRx
T1 construct: purchased DiscoveRx Corporation, San Diego (KINOMEscan service)
Experimental: (§1) Enzyme Binding Assays (KINOMEscan®)
(§2) Kinase enzyme binding affinities of compounds disclosed herein were determined using the KINOMEscan technology performed by DiscoveRx Corporation, San Diego, Calif., USA (www.kinomescan.com). Table A reports the obtained Kd values (nM), with the Kd being the inhibitor binding constant: […]

[2] = biological target: T2, PIK3Cα_h (Homo sapiens, UniProt P42336); experiment: Enzyme binding assay (KINOMEscan); settings: DiscoveRx
T2 construct: purchased DiscoveRx Corporation, San Diego (KINOMEscan service)
T2 sequence (P42336 whole entry): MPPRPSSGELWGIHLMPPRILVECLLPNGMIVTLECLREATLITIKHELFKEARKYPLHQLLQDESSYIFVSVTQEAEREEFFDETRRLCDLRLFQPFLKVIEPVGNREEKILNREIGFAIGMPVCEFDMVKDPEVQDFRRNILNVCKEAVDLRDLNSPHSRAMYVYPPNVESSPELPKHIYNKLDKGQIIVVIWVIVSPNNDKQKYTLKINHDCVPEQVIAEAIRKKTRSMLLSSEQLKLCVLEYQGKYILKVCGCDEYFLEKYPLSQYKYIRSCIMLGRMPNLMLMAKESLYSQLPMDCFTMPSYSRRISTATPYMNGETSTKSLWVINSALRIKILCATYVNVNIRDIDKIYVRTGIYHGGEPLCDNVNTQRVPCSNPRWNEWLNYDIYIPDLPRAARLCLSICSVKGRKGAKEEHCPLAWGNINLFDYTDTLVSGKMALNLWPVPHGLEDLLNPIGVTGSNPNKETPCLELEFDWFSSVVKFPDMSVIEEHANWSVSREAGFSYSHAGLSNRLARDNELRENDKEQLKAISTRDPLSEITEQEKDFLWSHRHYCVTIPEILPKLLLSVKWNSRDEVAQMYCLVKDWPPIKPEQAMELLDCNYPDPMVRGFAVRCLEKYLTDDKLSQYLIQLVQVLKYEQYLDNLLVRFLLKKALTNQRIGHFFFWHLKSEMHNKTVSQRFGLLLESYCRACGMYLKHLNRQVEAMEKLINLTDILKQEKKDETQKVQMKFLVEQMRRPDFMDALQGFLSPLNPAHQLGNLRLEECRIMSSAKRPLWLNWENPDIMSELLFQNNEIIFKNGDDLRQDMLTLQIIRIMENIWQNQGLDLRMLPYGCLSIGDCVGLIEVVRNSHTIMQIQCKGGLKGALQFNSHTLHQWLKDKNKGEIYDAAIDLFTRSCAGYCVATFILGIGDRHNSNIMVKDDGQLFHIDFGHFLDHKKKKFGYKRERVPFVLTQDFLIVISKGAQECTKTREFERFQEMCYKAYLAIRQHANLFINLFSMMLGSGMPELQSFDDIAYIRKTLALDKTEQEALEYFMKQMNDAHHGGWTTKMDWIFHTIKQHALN
Experimental: as §1, §2

[3] = biological target: T3, PIK3Cβ_h (Homo sapiens, UniProt P42338); experiment: Enzyme binding assay (KINOMEscan); settings: DiscoveRx
T3 construct: purchased DiscoveRx Corporation, San Diego (KINOMEscan service)
T3 sequence (P42338 whole entry): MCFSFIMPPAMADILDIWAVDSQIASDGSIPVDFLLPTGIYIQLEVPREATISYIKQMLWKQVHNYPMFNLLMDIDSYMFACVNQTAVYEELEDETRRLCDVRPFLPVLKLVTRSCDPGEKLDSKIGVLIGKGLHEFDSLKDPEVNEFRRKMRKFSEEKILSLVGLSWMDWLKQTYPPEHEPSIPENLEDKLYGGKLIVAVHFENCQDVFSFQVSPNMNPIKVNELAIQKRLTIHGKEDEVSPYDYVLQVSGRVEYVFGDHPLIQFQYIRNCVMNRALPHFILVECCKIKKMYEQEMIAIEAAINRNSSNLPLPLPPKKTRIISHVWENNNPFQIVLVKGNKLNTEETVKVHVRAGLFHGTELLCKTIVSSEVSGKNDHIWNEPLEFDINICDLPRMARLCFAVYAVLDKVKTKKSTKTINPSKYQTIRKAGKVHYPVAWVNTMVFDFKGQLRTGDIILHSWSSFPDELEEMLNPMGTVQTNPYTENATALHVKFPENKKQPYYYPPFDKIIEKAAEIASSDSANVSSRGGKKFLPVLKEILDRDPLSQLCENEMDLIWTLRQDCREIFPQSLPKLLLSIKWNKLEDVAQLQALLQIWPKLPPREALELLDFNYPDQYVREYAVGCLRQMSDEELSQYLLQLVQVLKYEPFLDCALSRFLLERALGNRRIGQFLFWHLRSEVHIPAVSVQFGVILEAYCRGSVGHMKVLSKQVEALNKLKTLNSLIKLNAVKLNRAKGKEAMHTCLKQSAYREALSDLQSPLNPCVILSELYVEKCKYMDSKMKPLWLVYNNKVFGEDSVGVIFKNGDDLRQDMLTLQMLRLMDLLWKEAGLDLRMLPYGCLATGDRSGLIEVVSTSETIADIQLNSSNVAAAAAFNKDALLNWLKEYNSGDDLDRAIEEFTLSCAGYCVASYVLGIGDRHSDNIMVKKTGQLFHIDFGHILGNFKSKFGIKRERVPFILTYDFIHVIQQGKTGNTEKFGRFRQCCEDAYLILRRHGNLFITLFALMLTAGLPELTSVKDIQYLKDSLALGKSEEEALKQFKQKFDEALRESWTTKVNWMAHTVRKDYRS
Experimental: as §1, §2

[4] = biological target: T4, PIK3Cγ_h (Homo sapiens, UniProt P48736); experiment: Enzyme binding assay (KINOMEscan); settings: DiscoveRx
T4 construct: purchased DiscoveRx Corporation, San Diego (KINOMEscan service)
T4 sequence (P48736 whole entry): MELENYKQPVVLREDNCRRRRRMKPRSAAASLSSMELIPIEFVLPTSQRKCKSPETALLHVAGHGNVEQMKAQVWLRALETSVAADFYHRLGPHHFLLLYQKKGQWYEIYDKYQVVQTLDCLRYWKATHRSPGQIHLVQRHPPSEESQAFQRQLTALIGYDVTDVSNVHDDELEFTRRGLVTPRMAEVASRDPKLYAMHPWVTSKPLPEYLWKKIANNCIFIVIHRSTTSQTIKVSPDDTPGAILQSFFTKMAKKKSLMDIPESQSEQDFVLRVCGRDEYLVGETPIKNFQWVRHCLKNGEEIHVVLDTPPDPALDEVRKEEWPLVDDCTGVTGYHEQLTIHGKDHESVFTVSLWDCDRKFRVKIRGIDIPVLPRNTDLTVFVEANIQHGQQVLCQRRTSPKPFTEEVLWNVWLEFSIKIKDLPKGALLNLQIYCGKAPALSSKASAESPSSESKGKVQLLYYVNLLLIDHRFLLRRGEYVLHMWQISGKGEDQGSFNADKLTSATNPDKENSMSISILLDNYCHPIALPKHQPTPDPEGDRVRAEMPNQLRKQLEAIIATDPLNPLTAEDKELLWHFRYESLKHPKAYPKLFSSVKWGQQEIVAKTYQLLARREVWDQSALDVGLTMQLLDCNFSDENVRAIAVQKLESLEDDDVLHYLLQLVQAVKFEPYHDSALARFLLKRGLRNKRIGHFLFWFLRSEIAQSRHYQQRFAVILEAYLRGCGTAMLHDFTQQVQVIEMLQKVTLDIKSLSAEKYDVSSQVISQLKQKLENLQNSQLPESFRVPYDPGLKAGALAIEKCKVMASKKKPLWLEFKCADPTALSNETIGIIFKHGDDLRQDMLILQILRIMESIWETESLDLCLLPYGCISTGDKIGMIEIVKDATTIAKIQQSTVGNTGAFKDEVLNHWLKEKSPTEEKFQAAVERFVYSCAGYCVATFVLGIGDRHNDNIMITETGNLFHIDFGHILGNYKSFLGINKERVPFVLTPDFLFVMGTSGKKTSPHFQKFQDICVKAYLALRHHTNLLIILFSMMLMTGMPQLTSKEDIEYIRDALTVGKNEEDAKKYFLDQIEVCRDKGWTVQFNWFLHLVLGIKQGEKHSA
Experimental: as §1, §2

[5] = biological target: T5, PIK3Cδ_h (Homo sapiens, UniProt O00329); experiment: Enzyme binding assay (KINOMEscan); settings: DiscoveRx
T5 construct: purchased DiscoveRx Corporation, San Diego (KINOMEscan service)
T5 sequence (O00329 1-1044): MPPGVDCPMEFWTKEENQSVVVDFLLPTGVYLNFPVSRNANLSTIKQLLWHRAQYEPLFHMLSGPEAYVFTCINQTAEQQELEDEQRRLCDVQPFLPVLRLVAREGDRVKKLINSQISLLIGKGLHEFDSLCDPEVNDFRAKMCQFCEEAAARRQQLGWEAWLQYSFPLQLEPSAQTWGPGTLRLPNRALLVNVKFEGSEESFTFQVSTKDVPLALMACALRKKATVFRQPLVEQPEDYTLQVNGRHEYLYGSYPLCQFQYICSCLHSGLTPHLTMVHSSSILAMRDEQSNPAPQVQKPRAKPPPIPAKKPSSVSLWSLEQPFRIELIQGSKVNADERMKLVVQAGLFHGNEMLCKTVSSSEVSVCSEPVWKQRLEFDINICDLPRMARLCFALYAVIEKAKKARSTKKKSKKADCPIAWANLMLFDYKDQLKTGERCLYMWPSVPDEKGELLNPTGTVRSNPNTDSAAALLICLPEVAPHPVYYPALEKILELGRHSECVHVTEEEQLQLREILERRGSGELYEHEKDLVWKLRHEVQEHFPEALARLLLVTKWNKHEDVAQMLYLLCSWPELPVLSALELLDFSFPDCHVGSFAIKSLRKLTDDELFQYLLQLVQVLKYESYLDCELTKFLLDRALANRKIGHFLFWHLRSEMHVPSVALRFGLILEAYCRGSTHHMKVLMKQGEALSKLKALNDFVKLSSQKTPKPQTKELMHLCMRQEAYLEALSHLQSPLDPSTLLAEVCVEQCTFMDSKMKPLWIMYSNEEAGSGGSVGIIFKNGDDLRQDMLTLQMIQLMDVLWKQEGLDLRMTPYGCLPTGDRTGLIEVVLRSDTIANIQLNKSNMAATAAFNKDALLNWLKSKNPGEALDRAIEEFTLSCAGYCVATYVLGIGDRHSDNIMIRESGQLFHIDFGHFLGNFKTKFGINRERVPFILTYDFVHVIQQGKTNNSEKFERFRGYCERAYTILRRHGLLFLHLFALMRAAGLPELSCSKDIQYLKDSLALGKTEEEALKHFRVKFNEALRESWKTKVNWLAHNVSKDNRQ
Experimental: as §1, §2

[6] = system: Akt phosphorylated at Ser473 in PC-3 cells; experiment: Cellular assay: phosphorylation of Akt (Ser473) in PC-3 cells, MSD ELISA; assay type: cell-based; settings: Homo sapiens, 1 h, 60 min incubation with compound, read-out: IC50 pAkt_S473
Experimental: (§3) Cellular activity of PI3Kβ inhibitors was determined by quantifying the phosphorylation of Akt in PC-3 cells. Akt phosphorylated at Ser473 and Thr308 were measured using an enzyme-linked immunosorbent assay (ELISA; Meso Scale Discovery (MSD). Gaithersburg, Md.) and specific primary antibodies from MSD.
(§4) On day 1, PC3 cells (ATCC […]) were seeded into PerkinElmer MW96 plates at 25.000 cells per well, in 75 μl complete culture medium (DMEM (Dulbecco's Modified Eagle's Medium) high glucose. AQmedia™, D0819, Sigma-Aldrich) containing 10% heat inactivated FCS (Fetal Bovine Serum) and incubated at 37° C., 5% CO2 during 24 hours. On day 2, compound or DMSO (dimethyl sulfoxide) (0.3%) was added and cells were further incubated for 60 min at 37° C., 5% CO2 in a total volume of 100 μl of medium.
(§5) The phosphoprotein assay was executed according to vendor instructions in the Phospho-Akt (Ser473) Assay Whole Cell Lysate Kit (MSD #K15100D-3) and the Phospho-Akt (Thr308) Assay Whole Cell Lysate Kit (MSD #K151DYD-3) using the lysis, blocking and wash buffer provided.
(§6) Briefly, at the end of the cell treatment period, media were removed by aspiration and adherent cells were lysed in 50 μl ice-cold lysis buffer. MSD plates are supplied pre-coated with capture antibodies for Phospho-Akt (Ser473 and Thr308). After blocking, lysates from tissue culture plates were added and plates were washed. Then, a solution containing the detection antibody (anti-total Akt conjugated with an electrochemiluminescent compound-MSD Sulfo-tag label) was added. The signals were detected using an MSD SECTOR Imager 6000 and are proportional to the phospho-Akt titres.
(§7) Data were processed. The percentage of inhibition was plotted against the log concentration of test compounds, and the sigmoidal log concentration-effect curve of best fit was calculated by nonlinear regression analysis. From these concentration-response curves, the IC50 values were calculated. Five concentrations were used for curve fitting.

[7] = system: Akt phosphorylated at Thr308 in PC-3 cells; experiment: Cellular assay: phosphorylation of Akt (Thr308) in PC-3 cells, MSD ELISA; assay type: cell-based; settings: Homo sapiens, 1 h, 60 min incubation with compound, read-out: IC50 pAkt_Thr308
Experimental: as §3, §4, §5, §6, §7

Row | Kd [1] | Kd [2] | Kd [3] | Kd [4] | Kd [5] | IC50 [6] | IC50 [7] | SMILES
1 | > 30.2 µM | 12 µM | 0.0036 µM | > 30.2 µM | 0.219 µM | ~0.132 µM | 0.071 µM | Cc1c(Cc2c(CN3CCC(CS(C)(=O)=O)CC3)nc3c(N)cc(N4CCOCC4)nn23)cccc1C(F)(F)F [Compound 5]
2 | 5.75 µM | 4.79 µM | 0.0006 µM | > 30.2 µM | 0.052 µM | ~0.042 µM | ~0.048 µM | Cc1c(Cc2c(CN3CC(C)NC(C)C3)nc3c(N)cc(N4CCOCC4)nn23)cccc1C(F)(F)F (stereo not drawn) [Compound 10]
3 | 11.4 µM | 0.436 µM | 0.0005 µM | 27.6 µM | 0.008 µM | 0.004 µM | 0.003 µM | Cc1c(Cc2c(CN3CC4(C3)CS(=O)(=O)C4)nc3c(N)cc(N4CCOCC4)nn23)cccc1C(F)(F)F [Compound 7]
4 | > 30.2 µM | > 30.2 µM | 0.0048 µM | > 30.2 µM | 0.479 µM | 0.117 µM | 0.066 µM | Cc1c(Cc2c(CN3CCCC34CCS(=O)(=O)C4)nc3c(N)cc(N4CCOCC4)nn23)cccc1C(F)(F)F (stereo not drawn) [Compound 31]
5 | 6.76 µM | 5.37 µM | 0.0004 µM | 21.4 µM | 0.048 µM | 0.06 µM | 0.018 µM | Cc1c(Cc2c(CNC(=O)[C@@H]3C[C@@H](O)CN3C)nc3c(N)cc(N4CCOCC4)nn23)cccc1C(F)(F)F [Compound 41]
6 | 6.07 µM | 0.475 µM | 0.0008 µM | 3.89 µM | 0.014 µM | 0.095 µM | 0.051 µM | Cc1c(Cc2c(CN3CC(C)NC(C)C3)nc3c(-c4ncc[nH]4)cc(N4CCOCC4)nn23)cccc1C(F)(F)F (stereo not drawn) [Compound 18]
7 | 21.4 µM | 0.372 µM | 0.0002 µM | 15.1 µM | 0.013 µM | > 0.513 µM | > 0.513 µM | Cc1c(Cc2c(CN3CC4(C3)CS(=O)(=O)C4)nc3c(C(=O)O)cc(N4CCOCC4)nn23)cccc1C(F)(F)F [Compound 28]
8 | > 30.2 µM | 6.31 µM | 0.0007 µM | 28.2 µM | 0.112 µM | > 0.513 µM | > 0.513 µM | Cc1c(Cc2c(CN3CC4(CC(O)C4)C3)nc3c(C(=O)O)cc(N4CCOCC4)nn23)cccc1C(F)(F)F [Compound 29]
9 | 3.55 µM | 1.38 µM | 0.0002 µM | 0.977 µM | 0.007 µM | 0.028 µM | 0.044 µM | Cc1c(Cc2c(CN3CC4(CCCNC4)C3)nc3c(N)cc(N4CCOCC4)nn23)cccc1C(F)(F)F [Compound 13]
10 | 8.13 µM | 0.617 µM | 0.0003 µM | 20 µM | 0.012 µM | 0.004 µM | 0.004 µM | [2H]C1([2H])OC([2H])([2H])C([2H])([2H])N(c2cc(N)c3nc(CN4CC5(C4)CS(=O)(=O)C5)c(Cc4cccc(C(F)(F)F)c4C)n3n2)C1([2H])[2H] [Compound 30]
11 | 7.39 µM | 3.55 µM | 0.0003 µM | 11.7 µM | 0.082 µM | 0.044 µM | 0.038 µM | Cc1c(Cc2c(CNC(=O)[C@@H]3CCCN3C)nc3c(N)cc(N4CCOCC4)nn23)cccc1C(F)(F)F [Compound 39]
12 | 18.2 µM | 6.31 µM | 0.0015 µM | > 30.2 µM | 0.224 µM | 0.087 µM | ~0.074 µM | Cc1c(Cc2c(CN3CCC4(CCS(=O)(=O)C4)C3)nc3c(N)cc(N4CCOCC4)nn23)cccc1C(F)(F)F (stereo not drawn) [Compound 34]
13 | 11 µM | 11.5 µM | 0.0017 µM | 16.2 µM | 0.191 µM | ~0.089 µM | 0.066 µM | Cc1c(Cc2c(CN3CC(O)C3)nc3c(N)cc(N4CCOCC4)nn23)cccc1C(F)(F)F [Compound 3]
14 | 3.22 µM | 2.05 µM | 0.0002 µM | 8.64 µM | 0.007 µM | 0.027 µM | 0.018 µM | Cc1c(Cc2c(CNC(=O)[C@@H]3CCCN3)nc3c(N)cc(N4CCOCC4)nn23)cccc1C(F)(F)F [Compound 35]
15 | 2 µM | 0.453 µM | 0.0007 µM | 5.7 µM | 0.017 µM | 0.038 µM | 0.028 µM | Cc1c(Cc2c(CN3CC(C)NC(C)C3)nc3c(-c4cnc[nH]4)cc(N4CCOCC4)nn23)cccc1C(F)(F)F (stereo not drawn) [Compound 16]
16 | 20 µM | 1.29 µM | 0.0011 µM | 4.17 µM | 0.129 µM | 0.107 µM | ~0.069 µM | Cc1c(Nc2c(CN3CC(C)NC(C)C3)nc3c(C(N)=O)cc(N4CCOCC4)nn23)cccc1C(F)(F)F (stereo not drawn) [Compound 21]
17 | 11 µM | 18.6 µM | 0.0017 µM | 8.51 µM | 0.089 µM | 0.085 µM | ~0.087 µM | Cc1c(Cc2c(CN3CCCC4(CNC4)C3)nc3c(N)cc(N4CCOCC4)nn23)cccc1C(F)(F)F [Compound 12]
18 | 0.355 µM | 1 µM | 0.0002 µM | > 30.2 µM | 0.014 µM | 0.054 µM | 0.031 µM | Cc1c(Cc2c(CNC(=O)[C@@H]3C[C@@H](F)CN3)nc3c(N)cc(N4CCOCC4)nn23)cccc1C(F)(F)F [Compound 38]
19 | 7.76 µM | 0.537 µM | 0.0014 µM | 2.19 µM | 0.022 µM | 0.03 µM | ~0.041 µM | Cc1c(Cc2c(CN3CCCC(CO)C3)nc3c(-c4cnc[nH]4)cc(N4CCOCC4)nn23)cccc1C(F)(F)F (stereo not drawn) [Compound 15]
20 | 13.8 µM | 7.41 µM | 0.0003 µM | 4.9 µM | 0.04 µM | 0.068 µM | 0.069 µM | Cc1c(Cc2c(CN3CCC(N)CC3)nc3c(N)cc(N4CCOCC4)nn23)cccc1C(F)(F)F [Compound 14]
21 | 1.55 µM | 0.24 µM | 0.0004 µM | 0.589 µM | 0.01 µM | 0.062 µM | 0.043 µM | Cc1c(Cc2c(CN3CC4(CC(O)C4)C3)nc3c(-c4cnc[nH]4)cc(N4CCOCC4)nn23)cccc1C(F)(F)F [Compound 27]
